Source: ChEMBL document CHEMBL3045186, “Assessments of crop losses in rice ecosystems due to stem borer damage (Lepidoptera: Pyralidae)” (2006)

Experiments:
Type in all cases: functional
[1] = tested on: Lepidoptera; test: Insecticidal activity against Lepidoptera infected rice plant assessed as dead heart damage at 1 kg ai/ha applied as granules on 30 to 50 days post planting (reference value: 11.87%)
[2] = tested on: Lepidoptera; test: Insecticidal activity against Lepidoptera infected rice plant assessed as white earhead damage at 1 kg ai/ha applied as granules on 30 to 50 days post planting (reference value: 12.17%)
[3] = tested on: Lepidoptera; test: Insecticidal activity against Lepidoptera infected rice plant assessed as dead heart damage at 0.75 kg ai/ha applied as emulsified concentrates through foliar spray on 30 to 50 days post planting (reference value: 11.87%)
[4] = tested on: Lepidoptera; test: Insecticidal activity against Lepidoptera infected rice plant assessed as increase in grain yield at 1 kg ai/ha applied as granules on 30 to 50 days post planting (reference value: 28%)
[5] = tested on: Lepidoptera; test: Insecticidal activity against Lepidoptera infected rice plant assessed as increase in grain yield at 0.75 kg ai/ha applied as emulsified concentrates through foliar spray on 30 to 50 days post planting (reference value: 28%)
[6] = tested on: Lepidoptera; test: Insecticidal activity against Lepidoptera infected rice plant assessed as white earhead damage at 0.75 kg ai/ha applied as emulsified concentrates through foliar spray on 30 to 50 days post planting (reference value: 12.17%)
[7] = tested on: Lepidoptera; test: Insecticidal activity against Lepidoptera infected rice plant assessed as increase in grain yield (reference value: 28%)
[8] = tested on: Lepidoptera; test: Insecticidal activity against Lepidoptera infected rice plant assessed as dead heart damage (reference value: 11.87%)
[9] = tested on: Lepidoptera; test: Insecticidal activity against Lepidoptera infected rice plant assessed as white earhead damage (reference value: 12.17%)

SMILES | Activity [1] | Activity [2] | Activity [3] | Crop_yield [4] | Crop_yield [5] | Activity [6] | Crop_yield [7] | Activity [8] | Activity [9]
CCOP(=S)(OCC)Oc1nc(Cl)c(Cl)cc1Cl [CHLORPYRIFOS] | 5.39% | 6.18% | 7.26% | 37% | 36% | 6.72% | – | – | –
CCOP(=S)(OCC)Oc1cnc2ccccc2n1 [QUINALPHOS] | – | – | – | – | – | – | 28% | 4.12% | 6.33%
CCOP(=S)(OCC)Oc1cc(C)nc(C(C)C)n1 [DIMPYLATE] | – | – | 8.14% | – | 42% | 3.19% | – | – | –
CCOP(=O)(/N=C1\SCC(C)S1)OCC (stereo unspecified) [CYTROLANE] | 3.63% | 3.14% | – | 32% | – | – | – | – | –
CNC(=O)Oc1cccc2c1OC(C)(C)C2 [CARBOFURAN] | 4.15% | 5.14% | – | 35% | – | – | – | – | –
CNC(=O)/C=C(\C)OP(=O)(OC)OC [MONOCROTOPHOS] | – | – | – | – | – | – | 37% | 4.76% | 6.31%
